# “And” between values parts separate entries of the source, which are not always exact repeats. Equal values may be shown once. “Also recorded” adds a separate entry of the source.
# Assays:
# Assay type in all cases: cell-based
# α3β4 nAChR = target: T1, α3β4 nAChR (Homo sapiens, UniProt P30926+P32297); assay: Inhibition of control ACh responses by co-application, α3β4 nAChR in oocytes; conditions: 3 μM compound co-applied with ACh; fraction of control ACh response
# T1 construct: expressed in transfected cells; host or cells: Xenopus laevis oocytes
# Procedure: (§1) Initial profiling against heteromeric receptors: The test compounds for their ability to activate or inhibit other nAChR subtypes were evaluated. Agonist activity was evaluated by applying the compounds at 100 or 30 μM to human α4β2 and α3β4 as well as to mouse muscle α1β1εδ nAChR expressed in Xenopus oocytes. […] The inhibitory activity was generally low (Table 3).
# (§2) Molecular Biology: Plasmid DNAs encoding the human α7 and heteromeric nAChR were obtained from Jon Lindstrom (University of Pennsylvania, Philadelphia, PA). Mouse muscle subunit clones were obtained from Jim Boulter (Salk Institute, La Jolla CA) and Paul Gardner (Dartmouth, Hanover NH). The human resistance-to-cholinesterase 3 ([…]) clone was obtained from Millet Treinin (Hebrew University, Jerusalem, Israel) and RNA co-injected with α7 to improve the level and speed of receptor expression without affecting their pharmacological properties. Plasmid DNA encoding the human α10 nAChR was obtained from J. Michael McIntosh. Plasmid DNA encoding the human α9 nAChR and the human receptor-associated protein of the synapse (RAPSYN) with codon optimization for expression in Xenopus laevis were obtained from Katrin Richter. RAPSYN RNA was co-injected with the α9 and α10 to improve expression (Richter et al., (2022) Front. Cell Neurosci. 16: 779081). After linearization and purification of the plasmid DNAs, RNAs were prepared using the mMessage mMachine in vitro RNA transcription kit (Ambion, Austin, TX). Frogs were maintained in the Animal Care Service facility of the University of Florida, and all procedures were approved by the University of Florida Institutional Animal Care and Use Committee (approval number 202002669). In brief, the animals were first anesthetized for 15-20 min in 1.5 l frog tank water containing 1 g of MS-222 buffered with sodium bicarbonate. Oocytes were obtained surgically from mature female Xenopus laevis (Nasco, Ft. Atkinson WI, USA) and treated with 1.4 mg/ml type 1 collagenase (Worthington Biochemicals, Freehold NJ, USA) for 2-4 h at rt in Ca2+-free Barth's solution (88 mM NaCl, 1 mM KCl, 2.38 mM NaHCO3, 0.82 mM MgSO4, 15 mM HEPES, and 12 mg/l tetracycline, pH 7.6) to remove the ovarian tissue and the follicular layers. Stage V oocytes were injected with 4-6 ng CHRNA7 RNA and 2-3 ng RIC3 RNA (2:1 ratio) in 50 nl water, or with 12 ng CHRNA9 RNA and 3 ng RAPSN RNA, or along with 12 ng CHRNA10 RNA in 50 nl water. Oocytes were maintained in Barth's solution containing 0.32 mM Ca(NO3)2 and 0.41 mM CaCl2, and recordings were conducted 2-20 days after injection.
# (§3) Electrophysiology: Two-electrode voltage-clamp experiments were conducted using OpusXpress 6000A (Molecular Devices, Union City CA, USA). Both the voltage and current electrodes were filled with 3 M KCl. Oocytes were voltage-clamped at −60 mV at rt. The oocytes were perfused with Ringer's solution (115 mM NaCl, 2.5 mM KCl, 1.8 mM CaCl2, 10 mM HEPES, 1 μM atropine, pH 7.2) at 2 ml/min. […] Drug applications were 12 s in duration followed by 181 s washout periods.
# (§4) The responses were calculated as both peak-current amplitudes and net charge. Data were collected at 50 Hz, filtered at 20 Hz, and analyzed by Clampfit (Molecular Devices) and Excel (Microsoft, Redmond, WA, United States). Data are expressed as means±SEM from at least five oocytes for each experiment and plotted with Kaleidagraph 4.5.2 (Abelbeck Software, Reading, PA, United States). Each episode of data acquisition was a total of 210 s and included an initial 30 s period used to define the baseline for the drug-evoked responses. After 30 s, drugs were applied, and the following 120 s were defined as the drug response period for analysis. […] The values for the curve fits were generated using the Levenberg-Marquardt algorithm to obtain the best Chi-Square fit to the Hill equation using the Kaleidagraph 4.5.2 plotting program. The errors in the tables are the calculated standard errors of the fit parameters based on the goodness of fit.
# α4β2 nAChR = target: T2, α4β2 nAChR (Homo sapiens, UniProt P17787+P43681); assay: Inhibition of control ACh responses by co-application, α4β2 nAChR in oocytes; conditions: 3 μM compound co-applied with ACh; fraction of control ACh response
# T2 construct: expressed in transfected cells; host or cells: Xenopus laevis oocytes
# Procedure: as §1, §2, §3, §4
# α7 nAChR [1] = target: T3, α7 nAChR (Homo sapiens, UniProt P36544); assay: Two-electrode voltage-clamp, agonist concentration-response, α7 nAChR in Xenopus oocytes; conditions: for EC50 / α7 Imax: net charge, ± standard error of fit; for α7 Imax: relative to ACh (Imax = 1)
# T3 construct: expressed in transfected cells; host or cells: Xenopus laevis oocytes, injected with in vitro transcribed RNA
# Source text: (§5) Electrophysiology: Xenopus oocytes were microinjected with RNAs to produce functional nAChR which were characterized by two-electrode voltage-clamp measurements. FIGS. 5A-7D present concentration-response curves for the new compounds evaluated with α7, α9, and α9α10 receptors. Table 1 presents the values for Imax and EC50 with these receptors and Table 2 summarizes inhibition data for the compounds with heteromeric nAChR.
# (§6) Molecular Biology: Plasmid DNAs encoding the human α7 and heteromeric nAChR were obtained from Jon Lindstrom (University of Pennsylvania, Philadelphia, PA). Mouse muscle subunit clones were obtained from Jim Boulter (Salk Institute, La Jolla CA) and Paul Gardner (Dartmouth, Hanover NH). […] Plasmid DNA encoding the human α10 nAChR was obtained from J. Michael McIntosh. Plasmid DNA encoding the human α9 nAChR and the human receptor-associated protein of the synapse (RAPSYN) with codon optimization for expression in Xenopus laevis were obtained from Katrin Richter. […] After linearization and purification of the plasmid DNAs, RNAs were prepared using the mMessage mMachine in vitro RNA transcription kit (Ambion, Austin, TX). […] Oocytes were maintained in Barth's solution containing 0.32 mM Ca(NO3)2 and 0.41 mM CaCl2, and recordings were conducted 2-20 days after injection.
# (§7) Electrophysiology: Two-electrode voltage-clamp experiments were conducted using OpusXpress 6000A (Molecular Devices, Union City CA, USA). Both the voltage and current electrodes were filled with 3 M KCl. Oocytes were voltage-clamped at −60 mV at rt.
# as §4
# α1β1εδ nAChR = target: T4, α1β1εδ nAChR (Mus musculus, UniProt P02716+P04756+P09690+P20782); assay: Inhibition of control ACh responses by co-application, muscle α1β1εδ nAChR in oocytes; conditions: 3 μM compound co-applied with ACh; fraction of control ACh response
# T4 construct: expressed in transfected cells; host or cells: Xenopus laevis oocytes
# Procedure: as §1, §2, §3, §4
# α9α10 nAChR = target: T5, α9α10 nAChR (Homo sapiens, UniProt Q9GZZ6+Q9UGM1); assay: Two-electrode voltage-clamp, agonist concentration-response, α9α10 nAChR in Xenopus oocytes; conditions: for α9α10 Imax: relative to ACh (Imax = 1)
# T5 construct: expressed in transfected cells; host or cells: Xenopus laevis oocytes, injected with in vitro transcribed RNA
# Source text: as §5, §2, §3
# as §4, with “The errors in the tables are the calculated standard errors of the fit parameters based on the goodness of fit.” left out
# α9 nAChR = target: T6, α9 nAChR (Homo sapiens, UniProt Q9UGM1); assay: Two-electrode voltage-clamp, agonist concentration-response, α9 nAChR in Xenopus oocytes; conditions: for α9 Imax: relative to ACh (Imax = 1)
# T6 construct: expressed in transfected cells; host or cells: Xenopus laevis oocytes, injected with in vitro transcribed RNA
# Source text: as §5, §2, §3
# as §4, with “The errors in the tables are the calculated standard errors of the fit parameters based on the goodness of fit.” left out
# α7 nAChR [2] = target: T3, α7 nAChR; assay: α7 responses to drugs co-applied with the PAM PNU-120596 (silent agonism); conditions: for Response co-applied with PNU-120596, normalized to ACh co-applied with PNU-120596: drug 30 μM + 10 μM PNU-120596, normalized to 30 μM ACh + 10 μM PNU-120596
# Source text: as §6, §7, §4
# [3] = peak currents, ± standard error of fit
# [4] = 3e vs larger ammonium analogs, 3h relative to 3g
# T2 sequence (P43681 29-627 limits assumed): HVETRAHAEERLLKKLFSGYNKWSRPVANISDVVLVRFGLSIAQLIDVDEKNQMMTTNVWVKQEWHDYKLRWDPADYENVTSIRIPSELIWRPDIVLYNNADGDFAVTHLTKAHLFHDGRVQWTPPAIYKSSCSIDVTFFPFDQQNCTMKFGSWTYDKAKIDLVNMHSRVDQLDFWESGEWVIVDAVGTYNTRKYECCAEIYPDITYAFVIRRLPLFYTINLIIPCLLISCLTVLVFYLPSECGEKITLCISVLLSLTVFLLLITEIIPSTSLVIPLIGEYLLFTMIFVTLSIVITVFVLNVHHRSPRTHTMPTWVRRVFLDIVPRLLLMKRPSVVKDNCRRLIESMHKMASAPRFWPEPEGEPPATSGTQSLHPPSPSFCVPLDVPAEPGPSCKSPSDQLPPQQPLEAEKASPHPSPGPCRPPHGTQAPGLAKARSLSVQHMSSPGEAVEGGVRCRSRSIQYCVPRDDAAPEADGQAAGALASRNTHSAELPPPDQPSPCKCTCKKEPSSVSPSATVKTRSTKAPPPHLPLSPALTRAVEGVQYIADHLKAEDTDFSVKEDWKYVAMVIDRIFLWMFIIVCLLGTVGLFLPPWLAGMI
# T2 sequence (P17787 26-502): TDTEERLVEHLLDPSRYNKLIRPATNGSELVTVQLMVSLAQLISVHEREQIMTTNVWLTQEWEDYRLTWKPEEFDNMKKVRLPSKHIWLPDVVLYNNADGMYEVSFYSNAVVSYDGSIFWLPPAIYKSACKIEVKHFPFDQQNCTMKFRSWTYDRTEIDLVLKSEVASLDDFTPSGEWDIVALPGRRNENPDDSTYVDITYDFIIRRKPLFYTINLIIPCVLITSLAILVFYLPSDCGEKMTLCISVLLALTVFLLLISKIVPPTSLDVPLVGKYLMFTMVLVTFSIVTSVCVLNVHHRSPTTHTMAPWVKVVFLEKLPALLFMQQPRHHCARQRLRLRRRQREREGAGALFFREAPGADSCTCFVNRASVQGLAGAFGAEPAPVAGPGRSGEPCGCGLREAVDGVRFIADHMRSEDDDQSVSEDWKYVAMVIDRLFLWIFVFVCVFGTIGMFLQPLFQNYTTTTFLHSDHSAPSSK
# T4 sequence (P04756 21-457): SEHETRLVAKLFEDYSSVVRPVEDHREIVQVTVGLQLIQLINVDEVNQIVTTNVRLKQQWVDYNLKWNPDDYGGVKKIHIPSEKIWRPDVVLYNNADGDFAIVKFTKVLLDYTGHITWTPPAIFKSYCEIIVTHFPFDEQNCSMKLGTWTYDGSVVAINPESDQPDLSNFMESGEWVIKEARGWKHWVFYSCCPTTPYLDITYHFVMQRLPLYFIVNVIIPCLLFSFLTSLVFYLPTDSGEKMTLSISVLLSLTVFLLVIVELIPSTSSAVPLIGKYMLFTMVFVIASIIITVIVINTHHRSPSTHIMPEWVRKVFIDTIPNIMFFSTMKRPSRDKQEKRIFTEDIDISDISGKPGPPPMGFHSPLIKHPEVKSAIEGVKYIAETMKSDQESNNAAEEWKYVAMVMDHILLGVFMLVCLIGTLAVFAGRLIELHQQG
# T4 sequence (P09690 24-501): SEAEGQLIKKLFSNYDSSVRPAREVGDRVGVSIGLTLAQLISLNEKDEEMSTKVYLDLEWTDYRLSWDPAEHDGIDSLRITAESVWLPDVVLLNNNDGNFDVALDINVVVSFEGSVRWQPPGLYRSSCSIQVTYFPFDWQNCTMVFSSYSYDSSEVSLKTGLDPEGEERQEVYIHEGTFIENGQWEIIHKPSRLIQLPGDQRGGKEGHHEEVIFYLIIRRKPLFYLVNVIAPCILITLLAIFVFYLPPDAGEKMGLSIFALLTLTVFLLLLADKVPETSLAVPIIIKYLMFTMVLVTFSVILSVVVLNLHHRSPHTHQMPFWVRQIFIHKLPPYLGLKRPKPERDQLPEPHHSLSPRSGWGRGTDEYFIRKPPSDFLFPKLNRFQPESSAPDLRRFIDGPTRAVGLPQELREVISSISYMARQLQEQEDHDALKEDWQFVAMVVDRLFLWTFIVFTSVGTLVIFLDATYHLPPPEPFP
# T4 sequence (P20782 21-493): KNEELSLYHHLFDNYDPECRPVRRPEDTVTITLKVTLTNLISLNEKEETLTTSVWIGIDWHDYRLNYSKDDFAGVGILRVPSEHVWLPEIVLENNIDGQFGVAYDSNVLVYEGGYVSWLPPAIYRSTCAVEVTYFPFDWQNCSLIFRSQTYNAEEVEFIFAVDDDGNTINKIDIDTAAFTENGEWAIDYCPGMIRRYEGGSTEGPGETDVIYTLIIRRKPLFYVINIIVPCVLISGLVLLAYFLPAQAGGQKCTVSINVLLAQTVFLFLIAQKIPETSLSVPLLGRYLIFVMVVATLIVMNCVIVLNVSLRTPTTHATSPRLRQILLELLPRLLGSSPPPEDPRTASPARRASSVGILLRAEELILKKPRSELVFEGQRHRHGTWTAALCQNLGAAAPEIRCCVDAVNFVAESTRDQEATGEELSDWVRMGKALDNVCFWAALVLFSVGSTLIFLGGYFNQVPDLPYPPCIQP
# T4 sequence (P02716 25-520): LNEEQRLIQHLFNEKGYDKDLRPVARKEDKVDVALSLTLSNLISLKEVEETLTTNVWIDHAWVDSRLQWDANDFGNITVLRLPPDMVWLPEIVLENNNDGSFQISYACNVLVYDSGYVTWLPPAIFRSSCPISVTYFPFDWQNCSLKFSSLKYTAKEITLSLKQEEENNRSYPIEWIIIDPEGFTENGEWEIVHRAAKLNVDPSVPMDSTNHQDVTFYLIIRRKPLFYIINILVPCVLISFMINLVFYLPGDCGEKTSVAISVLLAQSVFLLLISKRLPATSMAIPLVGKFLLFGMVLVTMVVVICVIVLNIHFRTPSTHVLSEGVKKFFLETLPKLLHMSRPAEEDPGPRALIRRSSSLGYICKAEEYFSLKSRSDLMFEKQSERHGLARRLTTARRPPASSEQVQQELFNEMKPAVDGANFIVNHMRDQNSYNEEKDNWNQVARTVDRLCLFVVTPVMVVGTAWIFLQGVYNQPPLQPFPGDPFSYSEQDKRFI
# T3 sequence (P36544 23-502): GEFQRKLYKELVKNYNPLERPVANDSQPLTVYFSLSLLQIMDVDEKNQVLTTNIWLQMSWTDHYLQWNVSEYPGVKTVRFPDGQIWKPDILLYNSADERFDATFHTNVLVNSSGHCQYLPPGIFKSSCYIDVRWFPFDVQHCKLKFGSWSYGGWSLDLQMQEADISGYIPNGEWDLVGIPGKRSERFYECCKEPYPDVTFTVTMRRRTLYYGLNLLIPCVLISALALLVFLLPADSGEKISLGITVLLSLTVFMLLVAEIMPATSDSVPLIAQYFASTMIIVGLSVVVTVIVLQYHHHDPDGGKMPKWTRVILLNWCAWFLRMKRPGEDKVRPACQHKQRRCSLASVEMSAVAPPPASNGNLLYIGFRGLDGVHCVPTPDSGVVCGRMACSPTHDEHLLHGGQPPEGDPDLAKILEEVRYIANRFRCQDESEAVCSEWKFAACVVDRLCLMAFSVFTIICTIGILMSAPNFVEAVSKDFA
# T5 sequence (Q9UGM1 26-479 limits assumed): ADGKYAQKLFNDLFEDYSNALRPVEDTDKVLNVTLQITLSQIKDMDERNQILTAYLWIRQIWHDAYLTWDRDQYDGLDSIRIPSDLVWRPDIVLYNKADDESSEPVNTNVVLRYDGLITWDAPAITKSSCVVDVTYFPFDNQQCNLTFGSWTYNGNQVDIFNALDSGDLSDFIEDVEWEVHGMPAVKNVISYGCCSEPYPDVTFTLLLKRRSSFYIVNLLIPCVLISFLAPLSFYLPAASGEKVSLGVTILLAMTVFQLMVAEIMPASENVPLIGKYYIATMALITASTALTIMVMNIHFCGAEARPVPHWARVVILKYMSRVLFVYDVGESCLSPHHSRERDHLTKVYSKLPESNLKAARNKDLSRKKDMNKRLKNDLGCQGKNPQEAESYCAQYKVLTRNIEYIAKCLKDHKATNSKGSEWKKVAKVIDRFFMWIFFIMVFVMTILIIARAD
# T5 sequence (Q9GZZ6 25-450): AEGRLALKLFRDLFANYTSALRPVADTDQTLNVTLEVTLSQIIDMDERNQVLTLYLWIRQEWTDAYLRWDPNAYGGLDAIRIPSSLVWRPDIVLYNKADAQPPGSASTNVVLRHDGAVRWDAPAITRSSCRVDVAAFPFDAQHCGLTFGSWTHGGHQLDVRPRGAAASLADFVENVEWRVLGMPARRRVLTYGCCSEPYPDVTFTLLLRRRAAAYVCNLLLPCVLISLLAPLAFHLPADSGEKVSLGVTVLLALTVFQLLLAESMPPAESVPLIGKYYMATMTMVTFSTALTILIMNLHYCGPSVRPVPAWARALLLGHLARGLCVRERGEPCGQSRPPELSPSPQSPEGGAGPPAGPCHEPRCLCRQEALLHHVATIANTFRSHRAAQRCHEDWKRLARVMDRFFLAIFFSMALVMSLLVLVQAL
# T6 sequence (Q9UGM1 26-479 limits assumed): as the sequence (Q9UGM1 26-479 limits assumed) above
SMILES,"Effect of co-application on the control ACh responses, α3β4 (α3β4 nAChR)","Effect of co-application on the control ACh responses, α4β2 (α4β2 nAChR)",EC50 (α7 nAChR [1]),α7 Imax (α7 nAChR [1]),"Effect of co-application on the control ACh responses, α1β1εδ (α1β1εδ nAChR)",α9α10 Imax (α9α10 nAChR; [3]),Agonist character / efficacy at α9 (α9 nAChR),α9 Imax (α9 nAChR; [3]),"Response co-applied with PNU-120596, normalized to ACh co-applied with PNU-120596 (α7 nAChR [2])",Agonist character / efficacy at α7 (α7 nAChR [1]),Fold loss of potency at α7 relative to comparator compound (α7 nAChR [1]; 3h compared with 3g),Agonist character / efficacy at α9α10 (α9α10 nAChR),Fold loss of potency at α9α10 relative to comparator compound (α9α10 nAChR; [4]),EC50 (α9α10 nAChR; [3]),Fold loss of potency at α9 relative to comparator compound (α9 nAChR; [4]),EC50 (α9 nAChR; [3]),"Response co-applied with PNU-120596 relative to the ACh controls (α7 nAChR [2]; 30 μM compound + 10 μM PNU-120596, relative to ACh alone controls)",α9α10 EC50 (α9α10 nAChR; [3]),α9 EC50 (α9 nAChR; [3]),Fold greater potency for α9 than for α7 (α9 nAChR; ratio of EC50 values)
"CC[N+]1(C)CCN(c2ccc(C(=O)Nc3cccc(C)n3)cc2)CC1.[I-] [Compound 3f, 1-ethyl-1-methyl-4-(4-((6-methylpyridin-2-yl)carbamoyl)phenyl)piperazin-1-ium iodide]",0.849 ± 0.018,0.858 ± 0.045,4.3 to 6.4 µM,0.40 ± 0.02 and 0.4,0.413 ± 0.070,0.92±0.04,full agonist,1.19±0.03,0.13,–,–,–,–,–,–,–,–,–,–,–
"CC[N+]1(CC)CCN(c2ccc(-n3cccn3)cc2)CC1.[I-] [Compound 3h, 4-(4-(1H-pyrazol-1-yl)phenyl)-1,1-diethylpiperazin-1-ium iodide]",0.736 ± 0.034,0.913 ± 0.026,18 ± 0.6 µM,0.088 ± 0.001 and 0.088,0.590 ± 0.062,0.59 ± 0.05,full agonist,1.01 ± 0.04,0.17,very weak partial agonists,10 fold,partial agonist,3 fold,2 ± 0.8 µM,3 fold,1.49 ± 0.24 µM,approximately 4 times,–,–,–
"CCCNC(=O)c1ccc(N2CC[N+](CC)(CC)CC2)cc1.[I-] [Compound 3b, 1,1-diethyl-4-(4-(propylcarbamoyl)phenyl)piperazin-1-ium iodide]",0.650 ± 0.039,0.946 ± 0.032,280 ± 240 µM,0.38 ± 0.09 and 0.38,0.709 ± 0.086,0.79 ± 0.13,–,1.13 ± 0.15,0.19,–,–,–,–,11 ± 6 µM,–,9 ± 6 µM,–,–,–,–
"CC[N+]1(CC)CCN(c2ccc(-c3ncco3)cc2)CC1.[I-] [Compound 3g, 1,1-diethyl-4-(4-(oxazol-2-yl)phenyl)piperazin-1-ium iodide]",0.507 ± 0.032,0.823 ± 0.043,1.7 ± 0.4 µM,0.12 ± 0.01 and 0.12,0.353 ± 0.071,0.83±0.01,full agonism; also recorded: full agonist,1.29±0.13,0.05,strongly diminished activity; also recorded: very weak partial agonists,–,strong partial agonist,–,0.7 ± 0.03 µM,–,0.38 ± 0.17 µM,–,submicromolar potency,submicromolar potency,–
"CC[N+]1(CC)CCN(c2ccc(C(=O)Nc3cccc(C)c3)cc2)CC1.[I-] [Compound 3d, 1,1-diethyl-4-(4-(m-tolylcarbamoyl)phenyl)piperazin-1-ium iodide]",1.039 ± 0.015,0.807 ± 0.048,1.3 ± 0.1 µM,0.60 ± 0.02 and 0.6,0.555 ± 0.060,1.12 ± 0.03,–,1.25 ± 0.14,0.17,partial agonists,–,–,–,0.61 ± 0.08 µM,–,1.28 ± 0.62 µM,–,–,–,–
"CC[N+]1(CC)CCN(c2ccc(C(N)=O)cc2)CC1 [Compound 1, 4-(4-carbamoylphenyI)-1,1-diethylpiperazin-1-ium iodide, reference compound]",–,–,76 ± 2 µM,0.34 ± 0.01 and 0.34,–,1.19 ± 0.25,full α9 agonist,0.80 ± 0.03,0.18,–,–,–,–,13 ± 11 µM,–,1.15 ± 0.24 µM,–,–,–,66 fold
